According to patent US9428759B2, “Methods for increasing the production of phenolic compounds from Theobroma cacao” (Casa Luker S.A., priority 2012, dated 2016):

Tested on: cocoa callus
Experiment: Induction of cocoa callus development with 2,4-D and chitosan
Assay type: cell-based, Theobroma cacao
Text: After surface sterilization, seeds (grains) were subjected to induction of calluses in specific media for tissue cultures as follows (see Murashige, T. and Skoog, F. “A revised medium for rapid growth and bioassays with tobacco tissue cultures,” Physiologia Plantarum, 1962, Vol 15: 473-495). Disinfected cocoa seeds were submitted to extraction of embryonic cells under aseptic conditions, and transferred to growth medium (MS), which contains mineral salts and microelements, and which is enriched with myo-inositol (100 mg/L) and sucrose (30 g/L), with gellan gum (2.4 g/L) as a gelling agent. The cocoa explants were incubated under dark conditions for 7 days at 22-24° C. After the incubation period, the cocoa embryonic cells were subcultured in nutrient media with the same types of ingredients as the media mentioned above, but containing different concentrations of auxins (growth hormones 2,4-D), using […] (0, 0.1, 0.5, 1.0 and 2.0 mg/L). […]
Different concentrations including 0, 0.1, 0.2, 0.5, 1, 2, 4, mg/L of kinetin were evaluated. Also, kinetin was used with or without 2,4-D at concentration of 2 mg/L. The growth of calluses was evaluated after 100 days, and different parameters were used to determine the effects of the growth regulators on callus growth including % of disaggregation and height and diameter of the callus. […]

Compound: O=C(O)COc1ccc(Cl)cc1Cl [2,4 D, 2,4-dichlorophenoxyacetic acid]
- growth in cocoa calluses (2 mg/L, all three cocoa phenotypes, early stages of development): induced larger growth
- % of Callus Development (2,4-D 2 mgL^−1, initial callus development, three cocoa phenotypes): 22.9167%
